Laboratory results as given in patent US8952024B2, “Herbicidal pyrimidone derivatives” (E I du Pont de Nemours and Company, priority 2009, dated 2015).

Columns and labels:
Test in all cases: Test B pre-/postemergence plant response
Format in all cases: in vivo
[1] = tested on: lambsquarters (Chenopodium album)
Method in brief: (§1)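 Ratings reflect visual comparison with untreated controls 13 to 15 days after application, from 0 (no effect) to 100 (complete control). Application was preemergence to seeded loam/sand soil or postemergence to 1- to 4-leaf plants, with compound in a non-phytotoxic, surfactant-containing solvent.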

[2] = tested on: green foxtail (Setaria viridis)
Method in brief: as §1

[3] = tested on: large crabgrass (Digitaria sanguinalis)
Method in brief: as §1

[4] = tested on: goosegrass (Eleusine indica)
Method in brief: as §1

[5] = tested on: velvetleaf (Abutilon theophrasti)
Method in brief: as §1

[6] = tested on: woolly cupgrass (Eriochloa villosa)
Method in brief: as §1

[7] = tested on: yellow nutsedge (Cyperus esculentus)
Method in brief: as §1

[8] = tested on: pigweed (Amaranthus retroflexus)
Method in brief: as §1

[9] = tested on: Italian ryegrass (Lolium multiflorum)
Method in brief: as §1

[10] = tested on: wheat (Triticum aestivum)
Method in brief: as §1

[11] = tested on: Surinam grass (Brachiaria decumbens)
Method in brief: as §1

[12] = tested on: ragweed (common ragweed, Ambrosia elatior)
Method in brief: as §1

[13] = tested on: downy bromegrass (Bromus tectorum)
Method in brief: as §1

[14] = 31 g ai/ha, postemergence, scale 0 to 100, 0 is no effect, 100 is complete control
[15] = 250 g ai/ha, Preemergence, 0 to 100 scale
[16] = Postemergence, 62 g ai/ha, scale 0 (no effect) to 100 (complete control), 13 to 15 days
[17] = Postemergence, 125 g ai/ha, visual rating after 13 to 15 days, scale 0 (no effect) to 100 (complete control)
[18] = Postemergence, 250 g ai/ha, scale 0 to 100 (0 no effect, 100 complete control)
[19] = Preemergence, 31 g ai/ha, scale 0 to 100 (0 no effect, 100 complete control)
[20] = Preemergence, 62 g ai/ha, scale 0 to 100 (0 no effect, 100 complete control)
[21] = Preemergence, 125 g ai/ha, scale 0 to 100, 0 no effect, 100 complete control
[22] = 62 g ai/ha, postemergence, 0 is no effect, 100 is complete control, 13 to 15 days

O=C1CCCC(O)=C1C(=O)c1cnc(-c2cccc(Cl)c2)n(-c2ccc(Cl)cc2)c1=O [Compound 64]
50: Plant response rating, Foxtail, Green [2, 15] | Plant response rating, Crabgrass, Large [3, 19] | Plant response rating, Ragweed [12, 20]
15: Plant response rating, Wheat [10, 16]
60: Plant response rating, Bromegrass, Downy [13, 17]
70: Plant response rating, Foxtail, Green [2, 14]
25: Plant response rating, Nutsedge, Yellow [7, 18] | Plant response rating, Bromegrass, Downy [13, 14]
10: Plant response rating, Cupgrass, Woolly [6, 15] | Plant response rating, Nutsedge, Yellow [7, 16] | Plant response rating, Nutsedge, Yellow [7, 17] | Plant response rating, Wheat [10, 14]
80: Plant response rating, Goosegrass [4, 14] | Plant response rating, Goosegrass [4, 16]
45: Plant response rating, Bromegrass, Downy [13, 16]
90: Plant response rating, Crabgrass, Large [3, 16] | Plant response rating, Goosegrass [4, 18] | Plant response rating, Ragweed [12, 17] | Plant response rating, Ragweed [12, 18]
65: Plant response rating, Velvetleaf [5, 19]
40: Plant response rating, Goosegrass [4, 20]
95: Plant response rating, Lambsquarters [1, 14] | Plant response rating, Lambsquarters [1, 19] | Plant response rating, Velvetleaf [5, 21] | Plant response rating, Cupgrass, Woolly [6, 16] | Plant response rating, Surinam Grass [11, 16]
55: Plant response rating, Pigweed [8, 19] | Plant response rating, Wheat [10, 18]
100: Plant response rating, Lambsquarters [1, 16] | Plant response rating, Lambsquarters [1, 17] | Plant response rating, Lambsquarters [1, 18] | Plant response rating, Foxtail, Green [2, 17] | Plant response rating, Foxtail, Green [2, 18] | Plant response rating, Goosegrass [4, 15] | Plant response rating, Velvetleaf [5, 18] | Plant response rating, Pigweed [8, 16] | Plant response rating, Pigweed [8, 17] | Plant response rating, Pigweed [8, 18]
30: Plant response rating, Goosegrass [4, 19] | Plant response rating, Ryegrass, Italian [9, 18] | Plant response rating, Wheat [10, 17]
75: Plant response rating, Crabgrass, Large [3, 20] | Plant response rating, Velvetleaf [5, 20] | Plant response rating, Cupgrass, Woolly [6, 14] | Plant response rating, Pigweed [8, 20] | Plant response rating, Ragweed [12, 21]
85: Plant response rating, Foxtail, Green [2, 16] | Plant response rating, Crabgrass, Large [3, 14] | Plant response rating, Goosegrass [4, 17] | Plant response rating, Velvetleaf [5, 14] | Plant response rating, Pigweed [8, 21] | Plant response rating, Surinam Grass [11, 14] | Plant response rating, Surinam Grass [11, 20] | Plant response rating, Surinam Grass [11, 21] | Plant response rating, Ragweed [12, 14] | Plant response rating, Ragweed [12, 16] | Plant response rating, Bromegrass, Downy [13, 18]
98: Plant response rating, Lambsquarters [1, 15] | Plant response rating, Lambsquarters [1, 20] | Plant response rating, Lambsquarters [1, 21] | Plant response rating, Crabgrass, Large [3, 15] | Plant response rating, Crabgrass, Large [3, 17] | Plant response rating, Crabgrass, Large [3, 18] | Plant response rating, Crabgrass, Large [3, 21] | Plant response rating, Goosegrass [4, 21] | Plant response rating, Velvetleaf [5, 16] | Plant response rating, Velvetleaf [5, 17] | Plant response rating, Cupgrass, Woolly [6, 17] | Plant response rating, Cupgrass, Woolly [6, 18] | Plant response rating, Pigweed [8, 14] | Plant response rating, Surinam Grass [11, 17] | Plant response rating, Surinam Grass [11, 18]
0: Plant response rating, Foxtail, Green [2, 19] | Plant response rating, Foxtail, Green [2, 20] | Plant response rating, Foxtail, Green [2, 21] | Plant response rating, Cupgrass, Woolly [6, 19] | Plant response rating, Cupgrass, Woolly [6, 20] | Plant response rating, Cupgrass, Woolly [6, 21] | Plant response rating, Nutsedge, Yellow [7, 14] | Plant response rating, Nutsedge, Yellow [7, 19] | Plant response rating, Nutsedge, Yellow [7, 20] | Plant response rating, Nutsedge, Yellow [7, 21] | Plant response rating, Ryegrass, Italian [9, 14] | Plant response rating, Ryegrass, Italian [9, 16] | Plant response rating, Ryegrass, Italian [9, 17] | Plant response rating, Ryegrass, Italian [9, 19] | Plant response rating, Ryegrass, Italian [9, 20] | Plant response rating, Ryegrass, Italian [9, 21] | Plant response rating, Wheat [10, 19] | Plant response rating, Wheat [10, 20] | Plant response rating, Wheat [10, 21] | Plant response rating, Surinam Grass [11, 19] | Plant response rating, Ragweed [12, 19] | Plant response rating, Bromegrass, Downy [13, 15] | Plant response rating, Bromegrass, Downy [13, 19] | Plant response rating, Bromegrass, Downy [13, 20] | Plant response rating, Bromegrass, Downy [13, 21]

CCCCc1ncc(C(=O)C2=C(O)CCCC2=O)c(=O)n1-c1ccc(C)cc1 [Compound 67]
100: Plant response rating, Lambsquarters [1, 18] | Plant response rating, Crabgrass, Large [3, 15] | Plant response rating, Velvetleaf [5, 18] | Plant response rating, Pigweed [8, 18]
40: Plant response rating, Foxtail, Green [2, 15] | Plant response rating, Crabgrass, Large [3, 19]
10: Plant response rating, Foxtail, Green [2, 14] | Plant response rating, Cupgrass, Woolly [6, 15] | Plant response rating, Surinam Grass [11, 14] | Plant response rating, Surinam Grass [11, 20]
70: Cupgrass, Woolly plant response rating (0 to 100 scale) [6, 22] | Plant response rating, Cupgrass, Woolly [6, 17] | Plant response rating, Nutsedge, Yellow [7, 18]
80: Plant response rating, Lambsquarters [1, 14] | Foxtail, Green plant response rating (0 to 100 scale) [2, 22] | Plant response rating, Foxtail, Green [2, 17] | Crabgrass, Large plant response rating (0 to 100 scale) [3, 22] | Plant response rating, Goosegrass [4, 18] | Ragweed plant response rating (0 to 100 scale) [12, 22]
95: Lambsquarters plant response rating (0 to 100 scale) [1, 22] | Plant response rating, Foxtail, Green [2, 18] | Plant response rating, Crabgrass, Large [3, 18] | Velvetleaf plant response rating (0 to 100 scale) [5, 22]
30: Plant response rating, Foxtail, Green [2, 20]
25: Plant response rating, Wheat [10, 17] | Plant response rating, Wheat [10, 18] | Plant response rating, Surinam Grass [11, 18] | Plant response rating, Ragweed [12, 19] | Plant response rating, Ragweed [12, 20]
35: Plant response rating, Ragweed [12, 21]
98: Plant response rating, Lambsquarters [1, 15] | Plant response rating, Lambsquarters [1, 17] | Plant response rating, Lambsquarters [1, 19] | Plant response rating, Lambsquarters [1, 20] | Plant response rating, Lambsquarters [1, 21] | Plant response rating, Crabgrass, Large [3, 21] | Plant response rating, Goosegrass [4, 15] | Plant response rating, Velvetleaf [5, 17] | Plant response rating, Pigweed [8, 14] | Pigweed plant response rating (0 to 100 scale) [8, 22] | Plant response rating, Pigweed [8, 17] | Plant response rating, Pigweed [8, 19] | Plant response rating, Pigweed [8, 20] | Plant response rating, Pigweed [8, 21]
75: Plant response rating, Crabgrass, Large [3, 14] | Plant response rating, Velvetleaf [5, 19] | Plant response rating, Cupgrass, Woolly [6, 18] | Plant response rating, Ragweed [12, 14]
15: Plant response rating, Surinam Grass [11, 21]
65: Plant response rating, Crabgrass, Large [3, 20] | Plant response rating, Goosegrass [4, 17] | Nutsedge, Yellow plant response rating (0 to 100 scale) [7, 22] | Plant response rating, Nutsedge, Yellow [7, 17] | Plant response rating, Nutsedge, Yellow [7, 20] | Plant response rating, Nutsedge, Yellow [7, 21]
55: Plant response rating, Goosegrass [4, 14] | Goosegrass plant response rating (0 to 100 scale) [4, 22]
20: Surinam Grass plant response rating (0 to 100 scale) [11, 22] | Plant response rating, Surinam Grass [11, 17]
0: Plant response rating, Foxtail, Green [2, 19] | Plant response rating, Cupgrass, Woolly [6, 19] | Plant response rating, Cupgrass, Woolly [6, 20] | Plant response rating, Cupgrass, Woolly [6, 21] | Plant response rating, Nutsedge, Yellow [7, 19] | Plant response rating, Ryegrass, Italian [9, 14] | Plant response rating, Ryegrass, Italian [9, 19] | Plant response rating, Ryegrass, Italian [9, 20] | Plant response rating, Ryegrass, Italian [9, 21] | Plant response rating, Wheat [10, 19] | Plant response rating, Wheat [10, 20] | Plant response rating, Wheat [10, 21] | Plant response rating, Surinam Grass [11, 19] | Plant response rating, Bromegrass, Downy [13, 14] | Bromegrass, Downy plant response rating (0 to 100 scale) [13, 22] | Plant response rating, Bromegrass, Downy [13, 15] | Plant response rating, Bromegrass, Downy [13, 17] | Plant response rating, Bromegrass, Downy [13, 19] | Plant response rating, Bromegrass, Downy [13, 20] | Plant response rating, Bromegrass, Downy [13, 21]
85: Plant response rating, Goosegrass [4, 19] | Plant response rating, Goosegrass [4, 20] | Plant response rating, Velvetleaf [5, 20] | Plant response rating, Ragweed [12, 17]
90: Plant response rating, Crabgrass, Large [3, 17] | Plant response rating, Goosegrass [4, 21] | Plant response rating, Velvetleaf [5, 14] | Plant response rating, Velvetleaf [5, 21] | Plant response rating, Ragweed [12, 18]
60: Plant response rating, Cupgrass, Woolly [6, 14] | Plant response rating, Nutsedge, Yellow [7, 14]
5: Ryegrass, Italian plant response rating (0 to 100 scale) [9, 22] | Plant response rating, Ryegrass, Italian [9, 17] | Plant response rating, Ryegrass, Italian [9, 18] | Plant response rating, Wheat [10, 14] | Wheat plant response rating (0 to 100 scale) [10, 22] | Plant response rating, Bromegrass, Downy [13, 18]
